# Measured values published in patent US8865182B2 (priority 2009, dated 2014).
# System: HLA-B7 supertype (B*0702, B*3501, B*5101, B*5301, B*5401)
# Format: binding, human
row,Sequence,# Alleles Bound
1,MPAHGPAKSM (Influenza Virus) [SEQ ID NO: 258],4
2,GPALSINEL (Influenza Virus) [SEQ ID NO: 306],1
3,IPAEMLASI (Influenza Virus) [SEQ ID NO: 255],4
4,LPFHNVHPL [SEQ ID NO: 67],5
5,FPNEVGARIL (Influenza Virus) [SEQ ID NO: 302],5
6,SPGMMMGMF [SEQ ID NO: 256],1
7,APSPYNSRF (Influenza Virus) [SEQ ID NO: 103],2
8,FPSSSYRRPV (Influenza Virus) [SEQ ID NO: 260],4
9,LPACVYGLAV (Influenza Virus) [SEQ ID NO: 133],4
10,LPRRSGAAGA [SEQ ID NO: 132],2
11,VPASRYLTDM (Influenza Virus) [SEQ ID NO: 147],2
12,IPKRNRSIL [SEQ ID NO: 259],1
13,SPQLEGFSA (Influenza Virus) [SEQ ID NO: 196],2
14,NPRMFLAMI (Influenza Virus) [SEQ ID NO: 252],1
15,RPWVSFNQNL (Influenza Virus) [SEQ ID NO: 105],1
16,APFSKDNSI (Influenza Virus) [SEQ ID NO: 102],1
17,RPCFWVELI [SEQ ID NO: 106],1
18,GPVHFRNQV (Influenza Virus) [SEQ ID NO: 301],1
19,NPALRMKWM (Influenza Virus) [SEQ ID NO: 299],1
20,GPATAQMAL (Influenza Virus) [SEQ ID NO: 257],2
21,YPKVYKTYF (Influenza Virus) [SEQ ID NO: 300],2
22,APPKQSRMQF (Influenza Virus) [SEQ ID NO: 304],1
23,APPEQSRMQF (Influenza Virus) [SEQ ID NO: 305],1
24,SPYNSRFESV (Influenza Virus) [SEQ ID NO: 104],3

# System: HLA-A24 supertype (A*2301, A*2402, A*2902, A*3002)
# Format: binding, human
row,Sequence,# Alleles Bound
1,WMMAMKYPI [SEQ ID NO: 295],2
2,WWTSNSIIVF (Influenza Virus) [SEQ ID NO: 99],2
3,FFLTQGALL (Influenza Virus) [SEQ ID NO: 98],3
4,SWPDGANIPF (Influenza Virus) [SEQ ID NO: 100],2
5,IFLARSALI (Influenza Virus) [SEQ ID NO: 130],2
6,RYTKTTYWW (Influenza Virus) [SEQ ID NO: 246],2
7,EWLKTRPIL (Influenza Virus) [SEQ ID NO: 75],2
8,MYQKCCNLF (Influenza Virus) [SEQ ID NO: 250],2
9,KFAAICTHL (Influenza Virus) [SEQ ID NO: 189],2
